Experimental data taken from patent US20170291905A1, “ARGININE […] INHIBITORS AND USES THEREOF” (Epizyme, Inc., priority 2014, published 2017).

Target: full-length human PRMT8 isoform 1 (Homo sapiens, UniProt Q9NR22)
Experiment: PRMT8 biochemical assay (3H-SAM Flashplate, histone H4 31-45 peptide)
Conditions: 1.5 nM PRMT8, 30 min preincubation, 150 nM peptide
Excerpt: S-adenosylmethionine (SAM), S-adenosylhomocysteine (SAH), bicine, Tween20, dimethylsulfoxide (DMSO), bovine skin gelatin (BSG), isopropyl-β-D-thiogalactopyranoside (IPTG), and Tris(2-carboxyethyl)phosphine hydrochloride solution (TCEP) were purchased from Sigma-Aldrich at the highest level of purity possible. ^3H-SAM was purchase from American Radiolabeled Chemicals with a specific activity of 80 Ci/mmol. 384-well streptavidin Flashplates were purchased from PerkinElmer.
Peptide representative of human histone H4 residues 31-45 was synthesized with an N-terminal linker-affinity tag motif and a C-terminal amide cap by 21st Century Biochemicals. The peptide was purified by high-performance liquid chromatography (HPLC) to greater than 95% purity and confirmed by liquid chromatography mass spectrometry (LC-MS). The sequence was Biot-Ahx-[…]-amide (SEQ ID NO.:8).
The resulting construct encodes an N-terminal GST tag and a thrombin cleavage sequence
E. coli (BL21(DE3) Gold, Stratagene) made competent by the CaCl2 method were transformed with the PRMT8 construct and ampicillin selection. Protein over-expression was accomplished by growing the PRMT8 expressing E. coli clone and inducing expression with 0.3 mM IPTG at 16° C. The culture was grown for 12 hours, harvested by centrifugation, and stored at −80° C. for purification.
GST-tagged PRMT8 was eluted with 50 mM Tris, 2 mM glutathione, pH 7.8. Pooled fractions were cleaved by thrombin (10U) and dialysed in buffer A. GST was removed by reloading the cleaved protein sample onto glutathione sepharose column and PRMT8 was collected in the flow-through fractions. PRMT8 was purified further by ceramic hydroxyapatite chromatography. The column was washed with 50 mM phosphate buffer, 100 mM NaCl, 5% glycerol, 5 mM […], pH 7.8 and PRMT8 was eluted by 100 mM phosphate in the same buffer. Protein was concentrated and buffer was exchanged to 50 mM Tris, 300 mM NaCl, 10% glycerol, 5 mM β-mercaptoethanol, pH 7.8 by ultrafiltration. The purity of recovered protein was 89%.
General Procedure for PRMT8 Enzyme Assays on Peptide Substrates.
The assays were all performed in a buffer consisting of 20 mM Bicine (pH=7.6), 1 mM TCEP, 0.005% BSG, and 0.002% Tween 20, prepared on the day of use. Compounds in 100% DMSO (1 ul) were spotted into a polypropylene 384-well V-bottom plates (Greiner) using a Platemate Plus outfitted with a 384-channel head (Thermo Scientific). DMSO (1 ul) was added to Columns 11, 12, 23, 24, rows A-H for the maximum signal control and 1 ul of SAH, a known product and inhibitor of PRMT8, was added to columns 11, 12, 23, 24, rows I-P for the minimum signal control. A cocktail (40 ul) containing the PRMT8 enzyme was added by Multidrop Combi (Thermo-Fisher). The compounds were allowed to incubate with PRMT8 for 30 min at room temperature, then a cocktail (10 ul) containing ^3H-SAM and peptide was added to initiate the reaction (final volume=51 ul). The final concentrations of the components were as follows: PRMT8 was 1.5 nM, ^3H-SAM was 50 nM, non-radiolabeled SAM was 550 nM, peptide was 150 nM, SAH in the minimum signal control wells was 1 mM, and the DMSO concentration was 2%. The assays were stopped by the addition of non-radiolabeled SAM (10 ul) to a final concentration of 400 uM, which dilutes the ^3H-SAM to a level where its incorporation into the peptide substrate is no longer detectable. 50 ul of the reaction in the 384-well polypropylene plate was then transferred to a 384-well Flashplate and the biotinylated peptides were allowed to bind to the streptavidin surface for at least 1 hour before being washed once with 0.1% Tween20 in a Biotek ELx405 plate washer. The plates were then read in a PerkinElmer TopCount plate reader to measure the quantity of ^3H-labeled peptide bound to the Flashplate surface, measured as disintegrations per minute (dpm) or alternatively, referred to as counts per minute (cpm). […]

Sequence of full-length human PRMT8 isoform 1 (Q9NR22 whole entry, canonical isoform): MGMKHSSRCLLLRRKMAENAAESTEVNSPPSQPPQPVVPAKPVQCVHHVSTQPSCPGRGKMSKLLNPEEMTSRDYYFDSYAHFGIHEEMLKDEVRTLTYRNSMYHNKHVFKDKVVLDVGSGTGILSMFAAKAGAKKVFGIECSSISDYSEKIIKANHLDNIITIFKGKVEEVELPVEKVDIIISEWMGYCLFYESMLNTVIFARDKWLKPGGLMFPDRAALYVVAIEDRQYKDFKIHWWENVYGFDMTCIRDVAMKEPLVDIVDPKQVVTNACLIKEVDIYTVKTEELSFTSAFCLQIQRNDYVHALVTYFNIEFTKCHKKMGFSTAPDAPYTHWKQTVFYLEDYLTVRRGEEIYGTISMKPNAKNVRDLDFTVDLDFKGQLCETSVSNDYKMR

Question: For `CNCCN(C)Cc1c[nH]nc1C1CCC(CO)(CO)CC1` [compound 44, (4-(4-((methyl(2-(methylamino)ethyl)amino)methyl)-1H-pyrazol-3-yl)cyclohexane-1,1-diyl)dimethanol], which IC50 is on record?
Answer: 34.4 nM

Question: How did the IC50 turn out when `CCOCCOCC1(COCCOCC)CCC(c2n[nH]cc2CN(C)CCNC)CC1` [compound 39, N1-((3-(4,4-bis((2-ethoxyethoxy)methyl)cyclohexyl)-1H-pyrazol-4-yl)methyl)-N1,N2-dimethylethane-1,2-diamine] was run?
Answer: 139 nM

Question: How did the IC50 turn out when `CNCCN(C)Cc1c[nH]nc1C1CCC(COC)(COCC2CCOCC2)CC1` (stereo not drawn) [compound 45] was run?
Answer: 11.2 nM

Question: Which IC50 does the source give for `CN(C)CCN(C)Cc1c[nH]nc1[C@H]1CC[C@]2(CC1)CC(C)(C)CO2` [compound 43, N1-((3-((5r,8r)-3,3-dimethyl-1-oxaspiro[4.5]decan-8-yl)-1H-pyrazol-4-yl)methyl)-N1,N2,N2-trimethylethane-1,2-diamine] here?
Answer: 97.2 nM

Question: `CC[C@H]1CC[C@@H](c2n[nH]cc2CN(C)CCNC)CC1` [compound 1] was tested. Which IC50 did it give?
Answer: 11.1 nM

Question: With `CNCCN(C)Cc1ccnn1[C@H]1CC[C@@]2(CC1)CC(C)(C)CO2` [compound 49, N1-((1-((5s,8s)-3,3-dimethyl-1-oxaspiro[4.5]decan-8-yl)-1H-pyrazol-5-yl)methyl)-N1,N2-dimethylethane-1,2-diamine] as the compound, how does the IC50 read?
Answer: 16.7 nM

Question: With `CCC1(CC)C[C@]2(CC[C@H](c3n[nH]cc3CN(C)CCNC)CC2)NC1=O` [compound 47, (5s,8s)-3,3-diethyl-8-(4-((methyl(2-(methylamino)ethyl)amino)methyl)-1H-pyrazol-3-yl)-1-azaspiro[4.5]decan-2-one] as the compound, how does the IC50 read?
Answer: 14.9 nM

Question: For `CNCCN(C)Cc1c[nH]nc1C1CCC(COCC2CC2)(COCC2CC2)CC1` [compound 41, N1-((3-(4,4-bis((cyclopropylmethoxy)methyl)cyclohexyl)-1H-pyrazol-4-yl)methyl)-N1,N2-dimethylethane-1,2-diamine], which IC50 is on record?
Answer: 9.27 nM

Question: For `CNCCN(C)Cc1c[nH]nc1C1=CCC2(CC1)CC(C)(C)CO2` (stereo not drawn) [compound 46, N1-((3-(3,3-dimethyl-1-oxaspiro[4.5]dec-7-en-8-yl)-1H-pyrazol-4-yl)methyl)-N1,N2-dimethylethane-1,2-diamine], which IC50 is on record?
Answer: 24.6 nM

Question: With `CCC1(CC)C[C@]2(CC[C@@H](c3n[nH]cc3CN(C)CCNC)CC2)NC1=O` [compound 48, (5r,8r)-3,3-diethyl-8-(4-((methyl(2-(methylamino)ethyl)amino)methyl)-1H-pyrazol-3-yl)-1-azaspiro[4.5]decan-2-one] as the compound, how does the IC50 read?
Answer: 70.6 nM

Question: `CNCCN(C)Cc1c[nH]nc1C1CCC(COCCC2CCOCC2)(COCCC2CCOCC2)CC1` [compound 40] was tested. Which IC50 did it give?
Answer: 45.5 nM

Question: With `CN(C)CCN(C)Cc1c[nH]nc1[C@H]1CC[C@@]2(CC1)CC(C)(C)CO2` [compound 42, N1-((3-((5S,8S)-3,3-dimethyl-1-oxaspiro[4.5]decan-8-yl)-1H-pyrazol-4-yl)methyl)-N1,N2,N2-trimethylethane-1,2-diamine] as the compound, how does the IC50 read?
Answer: 33.8 nM
